Reference: PubChem BioAssay (NCI)
Values joined by “and” are separate entries in the source; they are usually repeats but may differ in a detail not shown here. Equal entries are not always repeated.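 Five concentrations, 48 hours, 96-well plates. Abbreviation: GI50, concentration required for 50% inhibition of growth. Definition used: TGI = concentration required for complete inhibition of growth.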

What was measured:
Test in all cases: NCI-60 cell line screen, 48 h
DU-145 prostate = system: DU-145 prostate
HOP-92 NSCLC = system: HOP-92 NSCLC
IGROV1 ovarian = system: IGROV1 ovarian
NCI-H522 lung = system: NCI-H522 lung
PC-3 prostate = system: PC-3 prostate
SF-295 CNS = system: SF-295 CNS
SF-539 CNS = system: SF-539 CNS
SK-MEL-28 melanoma = system: SK-MEL-28 melanoma
SK-OV-3 ovarian = system: SK-OV-3 ovarian
U251 CNS = system: U251 CNS

Structure (SMILES) | GI50 (DU-145 prostate) [µM] | TGI (DU-145 prostate) [µM] | GI50 (HOP-92 NSCLC) [µM] | TGI (HOP-92 NSCLC) | GI50 (IGROV1 ovarian) | TGI (IGROV1 ovarian) [µM] | GI50 (NCI-H522 lung) [µM] | TGI (NCI-H522 lung) [µM] | GI50 (PC-3 prostate) [µM] | TGI (PC-3 prostate) | GI50 (SF-295 CNS) | TGI (SF-295 CNS) [µM] | GI50 (SF-539 CNS) | TGI (SF-539 CNS) | GI50 (SK-MEL-28 melanoma) | TGI (SK-MEL-28 melanoma) [µM] | GI50 (SK-OV-3 ovarian) [µM] | TGI (SK-OV-3 ovarian) [µM] | GI50 (U251 CNS) | TGI (U251 CNS) [µM]
Cn1cccc1-c1cc(-c2ccc(Br)cc2)nc(N)c1C#N | > 100 | > 100 | 47.8 | > 100 µM | 70 µM | > 100 | 66 | > 100 | > 100 | > 100 µM | > 100 µM | > 100 | > 100 µM | > 100 µM | > 100 µM | > 100 | > 100 | > 100 | > 100 µM | > 100
Cc1nc2cc(O)c(O)cc2cc1Oc1ccc(NC(=O)Nc2ccc(Cl)c(Cl)c2)cc1 | 7.26 | 25.2 | 2.85 | 16.7 µM | 12.3 µM | > 32.5 | 4.43 | 12.5 | 4.36 | > 32.5 µM | 11.4 µM | > 32.5 | 8.86 µM | 22.7 µM | 9 µM | 30.1 | 11.7 | > 32.5 | 6.58 µM | > 32.5
Cn1c(=O)c(F)c(Nc2ccc(I)cc2F)c2c(=O)n(C[C@@H](O)CO)cnc21 |  | > 100 | < 0.01 | 0.087 µM and 0.179 µM | 0.106 µM and 0.0179 µM | 20.8 |  | > 100 | 16.4 | 71.5 µM and > 4.12 µM | 14.1 µM and > 2.11 µM | > 78.3 | 3.21 µM and 0.907 µM | 22.8 µM and > 4.07 µM | < 0.01 µM and 0.00301 µM |  | 15.1 | > 68.8 | 0.741 µM and 0.246 µM | > 49.9
CC(C)[C@]12O[C@H]1[C@@H]1O[C@]13[C@]1(O[C@H]1C[C@H]1c4c(C(=O)c5ccccc5)oc(OC(=O)c5ccccc5)c4CC[C@@]13C)[C@@H]2O | 0.0204 | 15.3 | 0.0649 |  | 0.028 µM | 9.74 | 0.0169 | 0.0913 | 0.0358 |  | 0.0653 µM | 2.75 | 0.0282 µM | 0.115 µM | 0.0184 µM | 0.0612 | 0.0351 | > 100 | 0.0863 µM | > 100
CC(O)CN(CCN(CC(C)O)CC(C)O)CC(C)O.O=[N+]([O-])O.[Cu+2] (centres undefined) | > 100 | > 100 | > 100 | > 100 µM | > 100 µM | > 100 | > 100 | > 100 | > 100 | > 100 µM | 9.07 µM | > 100 | > 100 µM | > 100 µM | > 100 µM | > 100 | > 100 | > 100 | > 100 µM | > 100
CNCCNc1nc2ccccc2c2c(=O)c3cccc(OC)c3sc12 | 1.49 | 2.95 | 1.13 | 3.77 µM | 1 µM | 2.44 | 1.34 | 3.1 | 1.24 | 2.8 µM | 1.55 µM | 3.13 | 1.69 µM | 3.12 µM | 1.94 µM | 3.62 | 1.65 | 3.84 | 1.24 µM | 2.65
COC(=O)c1ccc2c(c1)nc(-c1ccc(Cl)cc1)n2-c1cc(C(C)(C)C)[nH]n1 | 3.69 | 25.1 | 1.15 | 8.02 µM | 3.64 µM | 25 | 3.21 | 20.3 | 2.93 | 15.7 µM | 2.48 µM | 8.98 | 2.54 µM | 8.95 µM | 3.38 µM | 15.5 | 3.71 | 31 | 4.13 µM | 22.7
COc1ccc(/C=C(/C(=O)N2CCNCC2)c2cc(OC)c(OC)c(OC)c2)cc1O | 4.1 | > 100 | 23.5 | > 100 µM | 6.73 µM | > 100 | 2.42 | 9.84 | 2.72 | > 100 µM | 5.36 µM | 60.3 | 2.22 µM | 6.51 µM | 8.84 µM | > 100 | 4.18 | > 100 | 3.29 µM | > 100
CCOc1ccc2c(c1)/C(=C\C=C\C1CC(C)C3CC(OCC)CCC3N1CC)CC(C)N2CC (centres undefined) | 0.991 | 2.25 | 1.21 | 2.58 µM | 1.11 µM | 3.13 | 0.852 | 3.08 | 0.558 | 2.28 µM | 0.418 µM | 1.68 | 1.27 µM | 2.68 µM | 1.36 µM | 2.86 | 0.596 | 1.92 | 0.38 µM | 1.51
O=C1c2cc3c(cc2-c2c1c1ccc([N+](=O)[O-])cc1c(=O)n2CCCCl)OCO3 | 0.122 | > 100 |  | > 100 µM |  |  | > 85.9 | > 100 | 2.4 | > 100 µM | 0.066 µM | > 100 | 0.145 µM |  | 0.525 µM | > 100 |  | > 100 | 0.0828 µM | 
O=[N+]([O-])c1ccc2[nH]cc(-c3c4ccccc4cc4[nH]c5ccc([N+](=O)[O-])cc5c34)c2c1 | 2.26 | 5.09 | 2.25 | 5.89 µM | 2.15 µM | 4.68 | 2.12 | 6.1 | 1.9 | 4.43 µM | 1.63 µM | 3.73 | 2 µM | 4.98 µM | 1.8 µM | 3.71 | 3.38 | 10.8 | 2.81 µM | 8.41
O=C1c2cccnc2-c2nc(-c3ccc([N+](=O)[O-])cc3)cc3c2c1nc1ccccc13 | 2.21 | 4.88 | 24 | 83.6 µM | 7.09 µM | 26 | 2 | 6.95 | 3.95 | > 100 µM | 4.47 µM | 15.4 | 3.05 µM | 11.3 µM | 12.7 µM | 27.8 | 11.4 | 39 | 3.44 µM | > 100
O=C1c2cccc3cccc(c23)C(=O)N1CCCCOc1ccc(-c2nc3ccc(N4CCOCC4)cc3[nH]2)cc1 | 3.86 | 15.8 | 2 | 4.37 µM | 11.1 µM | 66.9 | 15.1 | 41.2 | 3.16 | 23.6 µM | 1.63 µM |  | 1.65 µM | 3.47 µM | 1.42 µM | 2.86 | 31.2 | > 54 | 1.53 µM | 4.56
COc1cc2c(/C=C3\C(=O)Nc4ccc(Br)cc43)c(Cl)n(C)c2cc1C | 2.04 | 4.36 | 2.37 | 17.9 µM |  |  | 1.66 | 4.29 | 1.17 | 18.3 µM | 0.327 µM | 1.16 | 1 µM | 4.71 µM | 0.418 µM | 3.49 | 3.87 | 18.6 | 0.675 µM | 6.69
Fc1ccc(Nc2nc(Nc3ccc(-c4nc5ccccc5[nH]4)cc3)nc(N3CCCC3)n2)cc1 | 4.21 | 15.3 | 1.76 | 5.38 µM |  |  | 2.16 | 4.91 | 2.74 | 8.05 µM | 1.97 µM | 4.37 | 2.08 µM | 4.26 µM | 1.87 µM | 3.66 | 15.9 | 31.6 | 2.37 µM | 5.82
Cn1c2ccccc2c2c3c(c4c5ccccc5n(CCCCCC#N)c4c21)C(=O)N(O)C3=O | 0.381 | > 100 | 1.77 | 6.99 µM | 1.59 µM | 4.61 | 0.268 | 1.42 | 2.22 | 8.4 µM | 3.03 µM | 9.71 | 0.295 µM | 1.1 µM | 1.72 µM | 9.91 | 0.596 | 7.45 | 0.33 µM | 1.51
Cc1ccc(Cl)cc1Nc1nc(C(F)(F)F)ccc1C(=O)Oc1ccc(Cl)cc1 | 7.73 | 24.8 | 1.92 | 14.8 µM | 11.1 µM | > 100 | 22.3 | > 100 | 5.85 | 21.1 µM | 7.08 µM | 21.7 | 12 µM | 27.1 µM | 21.9 µM | > 100 | 12.2 | 37.4 | 4.15 µM | 16.1
C=C1C(=O)O[C@H]2[C@H]1CC/C(COC(=O)CCC(=O)OC/C1=C/CC[C@@]3(C)O[C@H]3[C@H]3OC(=O)C(=C)[C@@H]3CC1)=C\CC[C@@]1(C)O[C@@H]21 | 1.71 | 3.53 | 0.71 | 2.38 µM | 2.26 µM | 8.83 | 1.43 | 3.07 | 2.58 | 7.86 µM | 10.5 µM | 25.3 | 1.95 µM | 5.58 µM | 1.53 µM | 3.97 | 23.1 | 84.8 | 2.78 µM | 9.18
COC(=O)c1oc2c(C(=O)/C=C/c3ccc(OC)cc3)c(OCCCN3CCCCC3)ccc2c1C | 1.18 | 2.57 | 0.808 | 2.59 µM | 0.782 µM | 4.43 | 1.6 | 3.6 | 2.39 | 7.02 µM | 1.8 µM | 3.93 | 1.45 µM | 2.91 µM | 0.85 µM | 2.33 | 1.25 | 4.35 | 1.49 µM | 2.88
NC(=O)NC(=O)CI | 17.7 | 32.3 | 1.65 | 3.89 µM | 3.67 µM | 11.5 | 0.208 | 0.475 | 12.6 | 26.8 µM | 23.9 µM | > 57.7 | 9.5 µM | 23 µM | 13 µM | 26.2 | 27.4 | > 56.2 | 15.3 µM | 29.3
CCOC1NC(=O)Oc2ccccc21 (centres undefined) |  | > 100 |  | > 100 µM |  | > 100 |  | > 100 |  | > 100 µM |  | > 100 |  | > 100 µM |  | > 100 |  | > 100 |  | > 100
Cc1ccc(/C=C(\C#N)n2nnc3cc(F)c(F)cc32)cc1 | 3.32 | 15.6 | 2.37 | 8.32 µM | 3.43 µM | 32.1 | 0.291 | 1.12 | 5.16 | 24.3 µM | 4.02 µM | 34.4 | 2.59 µM | 10.3 µM | 6.79 µM | > 100 | 4.49 | 33.7 | 1.48 µM | 2.94
COc1ccccc1Nc1nc(-c2cc3cccc(C(F)(F)F)c3oc2=O)cs1 | 0.263 |  | 0.112 | 33.1 µM | 0.257 µM | > 53 | 0.0402 | 1.51 | 0.162 | > 100 µM | 0.0353 µM | 24.2 | 0.043 µM | 0.199 µM | 1.64 µM | > 100 | 0.237 | > 93.9 | 0.11 µM | 29.3
COc1ccc(-n2c(N)c(C(=O)NCCN3CCOCC3)c3nc4ccccc4nc32)cc1OC | 9.81 | > 100 | 20.3 | > 100 µM | 4.92 µM | 67.4 | 8.07 | > 100 | 11.7 | 87.3 µM |  |  | 7.8 µM | > 100 µM | 32.1 µM | > 100 | 85.5 | > 100 | 8.68 µM | > 100
COc1ccc(C(=O)Nc2cccc(C3CC(=O)c4c(cc(OC)c(OC)c4OC)O3)c2)cc1 (centres undefined) | 2.88 | > 100 | 1.66 | 8.31 µM | 2.41 µM | > 100 | 0.411 | 5.15 | 0.736 | 27.9 µM | 1.72 µM | 63.8 | 1.66 µM | 4.65 µM | 5.13 µM | > 100 | 3.63 | 98.4 |  | 
